Source: patent publication US6482849B1, “Inhibitors of α4β1 mediated cell adhesion” (Tanabe Seiyaku Co., Ltd., priority 1997, dated 2002)
Where two headings read alike, the source gives them in different places.

Legend:
[1] = biological target: T1, α4β1 integrin (Jurkat cell adhesion to immobilized CS-1 derived peptide CLHPGEILDVPST) (Homo sapiens, UniProt P05556+P13612); assay: Jurkat-CS-1 Assay; format: cell-based; settings: Jurkat cells on CS-1 peptide coated plates
T1 construct: 100 μl of Jurkat cells (2.5×10^6 cells/ml) in DMEM plus BSA; endogenous in cells; host or cells: Jurkat T-cell line
T1 sequence (P13612 34-1032): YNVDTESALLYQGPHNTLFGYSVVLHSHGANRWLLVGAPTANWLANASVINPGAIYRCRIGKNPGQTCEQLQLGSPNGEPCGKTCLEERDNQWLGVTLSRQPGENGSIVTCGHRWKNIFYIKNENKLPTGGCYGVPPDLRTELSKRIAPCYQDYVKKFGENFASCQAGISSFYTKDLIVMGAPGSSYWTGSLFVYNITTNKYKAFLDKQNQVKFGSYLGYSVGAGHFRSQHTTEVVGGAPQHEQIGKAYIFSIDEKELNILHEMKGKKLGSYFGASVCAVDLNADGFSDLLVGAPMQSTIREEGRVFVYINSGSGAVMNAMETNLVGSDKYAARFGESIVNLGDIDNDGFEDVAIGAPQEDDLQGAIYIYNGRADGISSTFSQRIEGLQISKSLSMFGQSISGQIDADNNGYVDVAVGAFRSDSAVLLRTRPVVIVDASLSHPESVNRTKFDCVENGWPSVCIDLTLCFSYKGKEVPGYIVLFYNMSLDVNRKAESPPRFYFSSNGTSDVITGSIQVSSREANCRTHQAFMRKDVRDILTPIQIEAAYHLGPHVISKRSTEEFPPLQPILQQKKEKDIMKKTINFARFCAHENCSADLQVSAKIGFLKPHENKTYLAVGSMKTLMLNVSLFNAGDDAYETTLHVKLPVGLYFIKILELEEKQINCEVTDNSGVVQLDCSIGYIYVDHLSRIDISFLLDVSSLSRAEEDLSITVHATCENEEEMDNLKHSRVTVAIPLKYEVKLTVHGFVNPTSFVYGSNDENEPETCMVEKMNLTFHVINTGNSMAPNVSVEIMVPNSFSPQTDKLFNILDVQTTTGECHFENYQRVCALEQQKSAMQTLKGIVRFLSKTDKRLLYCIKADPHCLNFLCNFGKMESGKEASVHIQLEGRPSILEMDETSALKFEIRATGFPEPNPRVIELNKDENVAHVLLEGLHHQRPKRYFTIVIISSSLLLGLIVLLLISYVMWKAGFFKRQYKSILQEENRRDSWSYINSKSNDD
T1 sequence (P05556 21-798): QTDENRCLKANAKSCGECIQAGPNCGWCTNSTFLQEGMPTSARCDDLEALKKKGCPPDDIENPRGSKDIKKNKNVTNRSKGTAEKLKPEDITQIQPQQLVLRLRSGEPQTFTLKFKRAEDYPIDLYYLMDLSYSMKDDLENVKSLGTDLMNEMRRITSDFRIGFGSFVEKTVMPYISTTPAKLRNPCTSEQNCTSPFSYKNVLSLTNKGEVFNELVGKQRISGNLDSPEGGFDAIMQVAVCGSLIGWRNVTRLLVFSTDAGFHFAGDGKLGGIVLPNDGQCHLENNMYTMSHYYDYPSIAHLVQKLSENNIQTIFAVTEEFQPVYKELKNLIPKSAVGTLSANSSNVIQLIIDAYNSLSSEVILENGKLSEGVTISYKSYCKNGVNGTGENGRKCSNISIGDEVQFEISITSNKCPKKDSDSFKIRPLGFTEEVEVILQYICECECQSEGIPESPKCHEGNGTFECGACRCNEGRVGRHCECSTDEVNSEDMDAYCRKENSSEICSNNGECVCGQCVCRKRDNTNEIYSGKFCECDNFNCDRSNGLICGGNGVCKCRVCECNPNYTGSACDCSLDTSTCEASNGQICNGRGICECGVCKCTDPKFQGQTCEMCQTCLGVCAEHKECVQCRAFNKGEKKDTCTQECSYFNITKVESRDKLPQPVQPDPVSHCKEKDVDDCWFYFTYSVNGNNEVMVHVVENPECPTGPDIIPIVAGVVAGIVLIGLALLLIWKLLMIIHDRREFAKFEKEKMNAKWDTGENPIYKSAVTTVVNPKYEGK
Procedure, shortened: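 CS-1 peptide was SPDP-crosslinked onto HSA-coated plates and blocked with BSA. Jurkat cells (2.5×10^6 cells/ml) in DMEM/BSA were mixed with compound, generally at 100, 20, 5 and 1.25 μM, and allowed to adhere for 1 hr at 37° C. Bound cells were fixed, stained with toluidine blue and quantified by OD590.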

[2] = biological target: T2, α4β1 integrin (Jurkat T-cell adhesion to IL-1 stimulated endothelial cell monolayers) (Homo sapiens, UniProt P05556+P13612); assay: Jurkat-Endothelial Cell Adhesion Assay (Jurkat EC); format: cell-based; settings: Jurkat cells on IL-1 stimulated HUVEC monolayers
T2 construct: a T-cell line, Jurkat, known to express the α4β1 integrin; host or cells: Jurkat T-cell line
T2 sequence (P13612 34-1032): as the sequence (P13612 34-1032) above
T2 sequence (P05556 21-798): as the sequence (P05556 21-798) above
Procedure, shortened: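 BCECF-loaded Jurkat cells (5×10^5) mixed with compound (generally 100, 20, 5 and 1.25 μM) and added to HUVEC monolayers prestimulated 4 hr with 0.1 ng/ml IL-1, in DMEM-HSA. After 5 min on ice and 20 min at 37° C, washed; fluorescence gives % adhesion relative to no-compound control set at 100%.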

[3] = system: VLA-4 integrin-dependent eosinophil infiltration; assay: Dextran pleurisy model (dextran-induced pleural leukocyte infiltration); format: in vivo, C57BL/6 mice; settings: Mus musculus, 4 h post-induction; for change in vivo at 25 mg/kg: 25 mg/kg × 2 iv (0h,+1h relative to dextran)
Protocol: C57BL/6 mice (Jackson, Bar Harbor, Me.;), 6-8 weeks old, weighing 20-25 g were used throughout. All mice were acclimated for at least 7-14 days after arrival and maintained under controlled temperature (20-22° C.) and a 12 hr daily light cycle (6.00 A.M.-6.00 P.M.). Mice were housed in laminar flow racks and checked biweekly for viral infections (mouse hepatitis virus, minute virus of mice, rodent orphan parvovirus, Sendai) with kits obtained from Oreganon Teknika (Durham, N.C.) using established enzyme-linked immunoabsorbent assays. Mice testing positive for any of the above were omitted from the study. All mice were fed standard laboratory chow (Upjohn Lab Rodent Irradiated Mouse Chow, #5011-3, PMI Feeds, St. Louis, Mo.) and acidified drinking water (pH 5.0) ad libitum.
Intrapleural injections were made using a 27 G needle cut to 3-4 mm and blunted by filing. Injections were made by inserting the needle between the mid-intercostal ribs on the right side of the thoracic cavity.
Dextran (MW 5-40×10^6, St Louis, Mo.) was injected as a 10% solution in saline in a volume of 100 μl/mouse. Care was taken to avoid bleeding at the site of injection at which the intercostal muscles were cut to facilitate smooth insertion of the needle.
Pleural leukocytes were collected as follows: 4 h post-induction, pleural inflammatory exudate was removed by washing with 2×1.0 ml Ca^++/Mg^++ free HBSS (Gibco, Grand Island, N.Y.) containing 45 mg EDTA/100 ml HBSS, 4° C. Total leukocyte counts were made by hemocytometer following erythrocyte lysis in 2% acetic acid in PBS buffer; exudate leukocyte pellets were resuspended in serum for cytospin preparations and stained (Diff Quik, Baxter Healthcare, McGraw Park, Ill.) for differential leukocyte counts (neutrophils, eosinophils, and mononuclear leukocytes).
The pleural cavities of mice receiving either no intrapleural injection, or saline were washed and the cells counted in the same way to estimate baseline or saline-induced pleural leukocyte counts respectively.
All drugs were dissolved in PBS and the pH adjusted to 7.5 with NaOH. Each drug was administered intravenously through the retroorbital sinus at hourly intervals (0-3 h) starting from time “0” as indicated.
The following camphoric acid analogues were tested for their inhibitory effects on dextran-induced leukocyte infiltration: Examples 4, 12, 54, 63, 166, 93, 180, 181, 183, 184, 217, Camphoric acid or PBS (saline) was administered iv. as a control. Inhibition of eosinophil infiltration, which was suppressed by anti-alpha-4 Mab (PS/2, 50%), was used as a readout of VLA-4 antagonist activity of the camphoric acids tested. Data for neutrophils are also reported.

[4] = system: contact hypersensitivity response; settings: in vivo; cited from earlier work
[5] = Eosinophil, 50 mg/kg × 2 iv (0h,+1h relative to dextran), read-out: %Δ Pleural Leukocytes, Eos
[6] = Neutrophil, 50 mg/kg × 2 iv (0h,+1h relative to dextran), read-out: %Δ Pleural Leukocytes, Neutro
[7] = Eosinophil, read-out: %Δ Pleural Leukocytes, Eos
[8] = Neutrophil, read-out: %Δ Pleural Leukocytes, Neutro

Row | Molecule | IC50 [1] | IC50 [2] | melting point | change in vivo at 50 mg/kg [3, 5] | change in vivo at 50 mg/kg [3, 6] | change in vivo at 50 mg/kg ([3]; Eosinophil, 50 mg/kg × 4 iv (0h,+1h,+2h,+3h relative to dextran), read-out: %Δ Pleural Leukocytes, Eos) | change in vivo at 50 mg/kg ([3]; Neutrophil, 50 mg/kg × 4 iv (0h,+1h,+2h,+3h relative to dextran), read-out: %Δ Pleural Leukocytes, Neutro) | change in vivo at 25 mg/kg [3, 7] | change in vivo at 25 mg/kg [3, 8] | Contact hypersensitivity response [4]
1 | CC1(C)[C@@H](C(=O)N[C@@H](Cc2cn(Cc3ccc(Cl)c(Cl)c3)cn2)C(=O)O)CC[C@@]1(C)C(=O)O [Example 4, (1S-cis)-N-[(3-Carboxy-2,2,3-trimethylcyclopentyl)carbonyl]-1-[(3,4-dichlorophenyl)methyl]-L-histidine] | 80 to 500 nM | 800 to 5000 nM | 148 to 149 °C (dec.) | ≤ -50% | -50 to -10% |  |  |  |  | 
2 | CC1(C)[C@@H](C(=O)N[C@@H](Cc2ccc(NC(=O)c3c(Cl)cccc3Cl)cc2)C(=O)O)CC[C@@]1(C)C(=O)O [Example 54, (1S-cis)-N-[(3-Carboxy-2,2,3-trimethylcyclopentyl)carbonyl]-4-[(2,6-dichlorobenzoyl)amino]-L-phenylalanine] | ≤ 80 nM | ≤ 800 nM | 231 to 233 °C |  |  | ≤ -50% | -50 to -10% |  |  | 
3 | CC1(C)[C@@H](C(=O)N[C@@H](Cc2ccc(OCc3c(Cl)cccc3Cl)c([N+](=O)[O-])c2)C(=O)O)CC[C@@]1(C)C(=O)O [Example 63] | ≤ 80 nM | 800 to 5000 nM | 92 to 94 °C | -50 to -10% | -50 to -10% |  |  | -50 to -10% | -50 to -10% | 
4 | CC1(C)[C@@H](C(=O)N[C@@H](Cc2ccc(NC(=O)c3c(Cl)cc(Cl)cc3Cl)cc2)C(=O)O)CC[C@@]1(C)C(=O)O [Example 93] | ≤ 80 nM | ≤ 800 nM |  | -50 to -10% | -10 to 0% |  |  |  |  | 
5 | CC1(C)[C@@H](C(=O)N[C@@H](Cc2ccc(NC(=O)c3c(Cl)cccc3Cl)cc2)C(=O)O)CC[C@@]1(C)C(N)=O [Example 166] | ≤ 80 nM | ≤ 800 nM | 196 to 198 °C | -50 to -10% | -10 to 0% |  |  |  |  | 
6 | CC1(C)[C@@H](C(=O)N[C@@H](Cc2ccc(NC(=O)c3c(Cl)cccc3Cl)cc2)C(=O)O)CC[C@@]1(C)C(=O)NCC(N)=O [Example 180, (1S-cis)-N-[[3-[[(2-Amino-2-oxoethyl)amino]-carbonyl]-2,2,3-trimethylcyclopentyl]carbonyl]-4-[(2,6-dichlorobenzoyl)amino]-L-phenylalanine] | ≤ 80 nM | ≤ 800 nM | 203 to 205 °C | -50 to -10% | -50 to -10% |  |  | -50 to -10% | -50 to -10% | 
7 | CC1(C)[C@@H](C(=O)N[C@@H](Cc2ccc(NC(=O)c3c(Cl)cccc3Cl)cc2)C(=O)O)CC[C@@]1(C)C(=O)NCC(=O)O [Example 181, (1S-cis)-N-[[3-[[(Carboxymethyl)amino]carbonyl]-2,2,3-trimethylcyclopentyl]carbonyl]-4-[(2,6-dichlorobenzoyl)amino]-L-phenylalanine] | ≤ 80 nM | ≤ 800 nM |  | -50 to -10% | -50 to -10% |  |  | -50 to -10% | -50 to -10% | 
8 | CC1(C)[C@@H](C(=O)N[C@@H](Cc2ccc(NC(=O)c3c(Cl)cccc3Cl)cc2)C(=O)O)CC[C@@]1(C)C#N [Example 184, (1S-cis)-N-[[3-Cyano-2,2,3-trimethylcyclopentyl]carbonyl]-4-[(2,6-dichlorobenzoyl)amino]-L-phenylalanine] | ≤ 80 nM | ≤ 800 nM |  | ≤ -50% | -50 to -10% |  |  | -50 to -10% | -50 to -10% | 
9 | CC1(C)[C@@H](C(=O)N[C@@H](Cc2ccc(NC(=O)c3c(Cl)cccc3Cl)cc2)C(=O)O)CC[C@@]1(C)C(=O)NOCc1ccccc1 [Example 217] | ≤ 80 nM | ≤ 800 nM |  | -50 to -10% | -10 to 0% |  |  |  |  | 
10 | EILDV |  |  |  |  |  |  |  |  |  | blocked
